Measurements reported in patent US5489675A, “Disaccharide sialidase substrates and inhibitors” (priority 1993, dated 1996).
Counter-ions that a name gives are not always drawn.

What was measured:
[1] = system: Clostridium perfringens neuraminidase; assay type: biochemical; conditions: for Vmax: C. perfringens neuraminidase, sialoside as substrate, 20 min, Lineweaver-Burk; for Vmax / rate of hydrolysis (time course): 37° C.; for Km: read-out: Michaelis Constant Km; for rate of hydrolysis (time course): C. P. neuraminidase, 0.75 mM sialoside, 0-120 min, FIGS. 1 and 3 panel B
[2] = target: Vibrio cholerae neuraminidase (Vibrio cholerae serotype O1, UniProt P0C6E9); assay type: biochemical; conditions: for rate of hydrolysis (time course): 0.75 mM sialoside, 37° C., 0-120 min, FIGS. 1 and 3 panel C
Sequence of Vibrio cholerae neuraminidase (P0C6E9 25-781): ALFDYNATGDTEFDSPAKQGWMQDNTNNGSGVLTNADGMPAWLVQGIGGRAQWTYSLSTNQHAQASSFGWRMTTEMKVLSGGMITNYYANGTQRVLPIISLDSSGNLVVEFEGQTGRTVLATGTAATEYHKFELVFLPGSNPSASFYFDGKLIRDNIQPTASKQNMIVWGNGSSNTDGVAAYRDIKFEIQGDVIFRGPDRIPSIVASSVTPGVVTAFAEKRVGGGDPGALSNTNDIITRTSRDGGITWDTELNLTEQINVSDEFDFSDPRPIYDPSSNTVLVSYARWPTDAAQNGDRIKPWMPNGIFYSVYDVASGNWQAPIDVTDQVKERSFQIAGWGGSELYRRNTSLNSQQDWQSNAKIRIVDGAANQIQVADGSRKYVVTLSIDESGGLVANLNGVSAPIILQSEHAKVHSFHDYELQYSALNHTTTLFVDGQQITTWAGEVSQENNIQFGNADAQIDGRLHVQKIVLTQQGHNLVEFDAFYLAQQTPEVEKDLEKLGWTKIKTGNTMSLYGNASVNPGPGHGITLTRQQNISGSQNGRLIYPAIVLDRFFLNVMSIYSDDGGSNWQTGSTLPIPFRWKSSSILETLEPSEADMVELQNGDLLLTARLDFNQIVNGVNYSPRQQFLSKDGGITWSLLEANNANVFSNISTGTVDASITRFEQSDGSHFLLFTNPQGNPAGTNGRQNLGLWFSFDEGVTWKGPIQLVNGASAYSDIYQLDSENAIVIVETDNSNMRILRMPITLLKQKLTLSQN

[3] = target: T1, Arthrobacter ureafaciens neuraminidase (Paenarthrobacter ureafaciens, UniProt Q5W7Q2); experiment: colorimetric neuraminidase assay (sialoside hydrolysis), A. ureafaciens; assay type: biochemical; conditions: 37° C.; for rate of hydrolysis (time course): A. U. neuraminidase, 0.75 mM sialoside, 0-120 min, FIGS. 1 and 3 panel A; for Vmax: A. ureafaciens neuraminidase, sialoside as substrate, 20 min, Lineweaver-Burk
T1 sequence (Q5W7Q2 39-990): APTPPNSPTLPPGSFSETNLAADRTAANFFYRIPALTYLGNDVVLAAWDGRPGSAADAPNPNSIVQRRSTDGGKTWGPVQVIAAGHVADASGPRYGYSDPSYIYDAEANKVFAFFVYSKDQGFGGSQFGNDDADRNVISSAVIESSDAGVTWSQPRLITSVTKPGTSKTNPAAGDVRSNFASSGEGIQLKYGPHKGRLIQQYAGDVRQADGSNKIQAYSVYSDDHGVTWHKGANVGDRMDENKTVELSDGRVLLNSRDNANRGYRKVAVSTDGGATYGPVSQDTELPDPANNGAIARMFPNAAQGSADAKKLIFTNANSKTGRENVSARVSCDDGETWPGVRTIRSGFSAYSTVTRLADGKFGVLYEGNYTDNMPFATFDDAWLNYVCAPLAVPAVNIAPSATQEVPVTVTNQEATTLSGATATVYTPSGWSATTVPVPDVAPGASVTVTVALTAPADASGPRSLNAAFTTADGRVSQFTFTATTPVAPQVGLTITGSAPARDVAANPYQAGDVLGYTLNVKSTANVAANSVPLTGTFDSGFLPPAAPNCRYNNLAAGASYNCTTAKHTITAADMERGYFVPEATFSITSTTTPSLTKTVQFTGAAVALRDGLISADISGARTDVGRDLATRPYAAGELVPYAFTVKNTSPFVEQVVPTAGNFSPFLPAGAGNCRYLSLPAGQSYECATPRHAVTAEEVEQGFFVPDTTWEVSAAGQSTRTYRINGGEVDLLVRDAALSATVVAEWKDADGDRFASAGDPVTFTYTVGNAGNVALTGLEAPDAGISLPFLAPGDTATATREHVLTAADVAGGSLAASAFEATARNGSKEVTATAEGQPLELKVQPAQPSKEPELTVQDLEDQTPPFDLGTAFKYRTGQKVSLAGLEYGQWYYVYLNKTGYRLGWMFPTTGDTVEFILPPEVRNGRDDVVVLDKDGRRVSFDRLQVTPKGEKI

C. P. neuraminidase = assay type: biochemical, Clostridium perfringens; conditions: substrate 25, Dixon plots, 37° C.

Structure (SMILES) | Vmax [1] [O.D./mU] | Km [1] [µM] | Vmax [2] [O.D./mU] | rate of hydrolysis (time course) [2] | rate of hydrolysis (time course) [3] | Vmax [3] [O.D./mU] | rate of hydrolysis (time course) [1] | Ki (C. P. neuraminidase) [µM]
CC(=O)N[C@H]1[C@H]([C@H](O)[C@H](O)CO)O[C@@](O[C@H](C)[C@H]2O[C@@H](OCC[Si](C)(C)C)[C@H](O)[C@@H](O)[C@H]2O)(C(=O)O)C[C@@H]1O [Compound 16a, Sodium salt of 5-acetamido-3,5-dideoxy-D-glycero-D-galacto-nonulopyranosylonate(2-6)-7-deoxy-β-D-glycero-D-galactoheptopyranosyl-OCH2 CH2 Si (CH3)3] | 0.90 | 2150 | 1.42 | preferentially hydrolyzed | efficiently hydrolyzed | 0.91 |  | 
CC(=O)N[C@H]1[C@H]([C@H](O)[C@H](O)CO)O[C@@](O[C@@H](C)[C@H]2O[C@@H](OCC[Si](C)(C)C)[C@H](O)[C@@H](O)[C@H]2O)(C(=O)O)C[C@@H]1O [Compound 16b, Sodium salt of 5-acetamido-3,5-dideoxy-D-glycero-D-galacto-nonulopyranosylonate(2-6)-7-deoxy-α-L-glycero-D-galactoheptopyranosyl-OCH2 CH2 Si (CH3)3] | 0.22 | 3200 | 0.37 |  | little hydrolysis | 0.05 | hydrolyzed very slowly | 
CC(=O)N[C@H]1[C@H]([C@H](O)[C@H](O)CO)O[C@@](OC[C@H]2O[C@@H]3OC(C)(C)O[C@@H]3[C@H]3OC(C)(C)O[C@H]32)(C(=O)O)C[C@@H]1O [Compound 23b, reference compound] | 1.70 | 1440 | 4.5 | more efficiently hydrolyzed | more efficiently hydrolyzed | 0.73 | more efficiently hydrolyzed | 
CC(=O)NC1C(O)CC(SC(C)C2OC(O)C(O)C(O)C2O)(C(=O)O)OC1C(O)C(O)CO [Compound 22a, Sodium salt of 5-acetamido-3,5-dideoxy-D-glycero-D-galacto-nonulopyranosylonic acid (2-S-6) -7-deoxy-D-glycero-D-galactoheptopyranose] |  |  |  |  |  |  |  | 1000
CC(=O)NC1C(O)CC(OCC2OC(OCC[Si](C)(C)C)C(O)C(O)C2O)(C(=O)O)OC1C(O)C(O)CO (centres unmarked) [Compound 23a, αDNeuAc (2-6) βDGal-OCH2 CH2 Si (CH3)3, reference compound] | 0.88 | 650 | 2.2 | most preferred substrate | efficiently hydrolyzed | 0.7 | faster than the tg sialoside 16a | 
CC(=O)N[C@H]1[C@H]([C@H](O)[C@H](O)CO)O[C@@](O[C@@H](C)[C@H]2O[C@@H]3OC(C)(C)O[C@@H]3[C@H]3OC(C)(C)O[C@H]32)(C(=O)O)C[C@@H]1O [Compound 19b, Sodium salt of 5-acetamido-3,5-dideoxy-D-glycero-D-galacto-nonulopyranosylonic acid (2-6)-1,2;3,4-di-O-isopropylidene-7-deoxy-α-D-glycero-D-galactoheptopyranose] |  |  |  | inactive |  |  | inactive | 
CC(=O)N[C@H]1[C@H]([C@H](O)[C@H](O)CO)O[C@@](O[C@H](C)[C@H]2O[C@@H]3OC(C)(C)O[C@@H]3[C@H]3OC(C)(C)O[C@H]32)(C(=O)O)C[C@@H]1O [Compound 19a, Sodium salt of 5-acetamido-3,5-dideoxy-D-glycero-D-galacto-nonulopyranosylonic acid (2-6)-1,2;3,4-di-O-isopropylidene-7-deoxy-α-D-glycero-D-galactoheptopyranose] |  |  |  | no effect on the hydrolysis | no effect on the hydrolysis |  | detrimental effect | 
